# Laboratory results reported in ChEMBL document CHEMBL5537172 (J Med Chem, 2024).
# Activity calls are given as the source filed them. The rule behind the calls is not given here.
# Experiments:
# SK-MEL-28 = test: cells; conditions: Homo sapiens
# [1] = Clearance in dog at 0.3 mg/kg, iv measured upto 24 hrs by LC-MS/MS analysis; format: ADME, organism-based, Canis lupus familiaris; conditions: in vivo
# [2] = AUCinfinity in dog at 0.3 mg/kg, iv measured upto 24 hrs by LC-MS/MS analysis; format: ADME, organism-based, Canis lupus familiaris; conditions: in vivo
# [3] = AUCinfinity in mouse at 10 mg/kg, po measured upto 24 hrs by LC-MS/MS analysis; format: ADME, organism-based; conditions: in vivo
# [4] = AUCinfinity in dog at 3 mg/kg, po measured upto 24 hrs by LC-MS/MS analysis; format: ADME, organism-based, Canis lupus familiaris; conditions: in vivo
# [5] = Cmax in dog at 3 mg/kg, po measured upto 24 hrs by LC-MS/MS analysis; format: ADME, organism-based, Canis lupus familiaris; conditions: in vivo
# [6] = target: Protein kinase C delta type (Homo sapiens, UniProt Q05655); test: Inhibition of PKCdelta (unknown origin)
# [7] = Toxicity in mouse xenografted with human 92-1 cells assessed as body weight loss at 15 to 150 mg/kg, po bid; format: organism-based; conditions: in vivo, dose 15-150 mg/kg
# [8] = AUCinfinity in rat at 3 mg/kg, po measured upto 24 hrs by LC-MS/MS analysis; format: ADME, organism-based; conditions: in vivo
# 92-1 [9] = test: Antitumor activity against human 92-1 cells xenografted in po dosed mouse assessed as tumor suppression administered twice daily; format: functional, organism-based; conditions: dose lower […], dose upper 75.0 mg/kg
# 92-1 [10] = test: Antitumor activity against human 92-1 cells xenografted in mouse assessed as tumor suppression at 75 to 150 mg/kg, po administered twice daily; format: functional, organism-based; conditions: dose lower 75.0 mg/kg, dose upper […]
# [11] = Tmax in mouse at 10 mg/kg, po measured upto 24 hrs by LC-MS/MS analysis; format: ADME, organism-based; conditions: in vivo
# [12] = Clearance in rat at 1 mg/kg, iv measured upto 24 hrs by LC-MS/MS analysis; format: ADME, organism-based; conditions: in vivo
# [13] = Dissociation constant, pKa of compound; format: physicochemical
# Mus musculus = test: In vivo inhibition of PKCdelta in mouse xenografted with human 92-1 cells assessed as reduction in phosphorylated levels at 15 to 72 mg/kg, po; format: functional, organism-based; conditions: dose lower […], dose upper […]
# [14] = target: Protein kinase C gamma type (Homo sapiens, UniProt P05129); test: Inhibition of PKCgamma (unknown origin)
# cells = conditions: Homo sapiens, 92-1, 72 h
# [15] = Oral bioavailability in rat at 3 mg/kg measured upto 24 hrs by LC-MS/MS analysis; format: ADME, organism-based; conditions: in vivo
# [16] = target: Protein kinase C eta type (Homo sapiens, UniProt P24723); test: Inhibition of PKCeta (unknown origin)
# [17] = Oral bioavailability in mouse at 10 mg/kg measured upto 24 hrs by LC-MS/MS analysis; format: ADME, organism-based; conditions: in vivo
# 92-1 [18] = test: Antitumor activity against human 92-1 cells xenografted in mouse assessed as tumor suppression at 75 mg/kg, po administered twice daily measured after compound withdrawal; format: functional, organism-based
# [19] = Oral bioavailability in dog at 3 mg/kg measured upto 24 hrs by LC-MS/MS analysis; format: ADME, organism-based, Canis lupus familiaris; conditions: in vivo
# [20] = target: T1, Protein kinase C beta type (Homo sapiens, UniProt P05771); test: Inhibition of PKCbeta2 (unknown origin)
# [21] = AUCinfinity in mouse at 1 mg/kg, iv measured upto 24 hrs by LC-MS/MS analysis; format: ADME, organism-based; conditions: in vivo
# [22] = Cmax in rat at 3 mg/kg, po measured upto 24 hrs by LC-MS/MS analysis; format: ADME, organism-based; conditions: in vivo
# [23] = Cmax in mouse at 10 mg/kg, po measured upto 24 hrs by LC-MS/MS analysis; format: ADME, organism-based; conditions: in vivo
# [24] = Volume of distribution at steady state in mouse at 1 mg/kg, iv measured upto 24 hrs by LC-MS/MS analysis; format: ADME, organism-based; conditions: in vivo, read-out: Vdss
# [25] = Clearance in mouse at 1 mg/kg, iv measured upto 24 hrs by LC-MS/MS analysis; format: ADME, organism-based; conditions: in vivo
# [26] = target: T2, Protein kinase C epsilon type (Homo sapiens, UniProt Q02156); test: Inhibition of PKCepsilon (unknown origin)
# T2 sequence (Q02156 whole entry): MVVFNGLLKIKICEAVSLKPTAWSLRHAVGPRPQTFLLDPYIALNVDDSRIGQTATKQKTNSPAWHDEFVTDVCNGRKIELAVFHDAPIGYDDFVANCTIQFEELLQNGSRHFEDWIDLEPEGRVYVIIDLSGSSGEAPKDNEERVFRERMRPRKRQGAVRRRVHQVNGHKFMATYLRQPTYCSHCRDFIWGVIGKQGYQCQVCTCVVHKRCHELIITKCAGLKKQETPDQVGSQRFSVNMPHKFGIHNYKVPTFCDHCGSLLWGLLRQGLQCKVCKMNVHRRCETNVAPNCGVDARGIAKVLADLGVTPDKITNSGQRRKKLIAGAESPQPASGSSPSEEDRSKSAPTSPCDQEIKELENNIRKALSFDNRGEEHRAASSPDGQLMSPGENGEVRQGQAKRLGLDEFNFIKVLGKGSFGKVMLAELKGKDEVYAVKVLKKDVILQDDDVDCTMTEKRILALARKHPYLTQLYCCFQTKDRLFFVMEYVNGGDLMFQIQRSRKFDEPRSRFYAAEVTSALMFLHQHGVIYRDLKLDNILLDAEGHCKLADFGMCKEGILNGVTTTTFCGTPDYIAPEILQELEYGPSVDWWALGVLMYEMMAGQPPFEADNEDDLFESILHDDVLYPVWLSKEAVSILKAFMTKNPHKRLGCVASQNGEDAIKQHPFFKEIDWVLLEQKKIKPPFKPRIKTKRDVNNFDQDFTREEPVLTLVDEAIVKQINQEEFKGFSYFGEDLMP
# [27] = Half-life in rat at 1 mg/kg, iv measured upto 24 hrs by LC-MS/MS analysis; format: ADME, organism-based; conditions: in vivo
# [28] = target: 5-hydroxytryptamine receptor 2B (Homo sapiens, UniProt P41595); test: Agonist activity at 5HT2B (unknown origin); format: toxicity
# [29] = Tmax in dog at 3 mg/kg, po measured upto 24 hrs by LC-MS/MS analysis; format: ADME, organism-based, Canis lupus familiaris; conditions: in vivo
# [30] = Volume of distribution at steady state in dog at 0.3 mg/kg, iv measured upto 24 hrs by LC-MS/MS analysis; format: ADME, organism-based, Canis lupus familiaris; conditions: in vivo, read-out: Vdss
# [31] = AUCinfinity in rat at 1 mg/kg, iv measured upto 24 hrs by LC-MS/MS analysis; format: ADME, organism-based; conditions: in vivo
# [32] = Half-life in dog at 0.3 mg/kg, iv measured upto 24 hrs by LC-MS/MS analysis; format: ADME, organism-based, Canis lupus familiaris; conditions: in vivo
# [33] = Volume of distribution at steady state in rat at 1 mg/kg, iv measured upto 24 hrs by LC-MS/MS analysis; format: ADME, organism-based; conditions: in vivo, read-out: Vdss
# [34] = Toxicity in mouse xenografted with human 92-1 cells assessed as body weight loss at 75 to 150 mg/kg, po bid; format: organism-based; conditions: in vivo, dose 75-150 mg/kg
# [35] = target: T1, Protein kinase C beta type; test: Inhibition of PKCbeta1 (unknown origin)
# [36] = Half life in mouse at 1 mg/kg, iv measured upto 24 hrs by LC-MS/MS analysis; format: ADME, organism-based; conditions: in vivo
# [37] = Tmax in rat at 3 mg/kg, po measured upto 24 hrs by LC-MS/MS analysis; format: ADME, organism-based; conditions: in vivo
# T1 sequence (P05771 whole entry): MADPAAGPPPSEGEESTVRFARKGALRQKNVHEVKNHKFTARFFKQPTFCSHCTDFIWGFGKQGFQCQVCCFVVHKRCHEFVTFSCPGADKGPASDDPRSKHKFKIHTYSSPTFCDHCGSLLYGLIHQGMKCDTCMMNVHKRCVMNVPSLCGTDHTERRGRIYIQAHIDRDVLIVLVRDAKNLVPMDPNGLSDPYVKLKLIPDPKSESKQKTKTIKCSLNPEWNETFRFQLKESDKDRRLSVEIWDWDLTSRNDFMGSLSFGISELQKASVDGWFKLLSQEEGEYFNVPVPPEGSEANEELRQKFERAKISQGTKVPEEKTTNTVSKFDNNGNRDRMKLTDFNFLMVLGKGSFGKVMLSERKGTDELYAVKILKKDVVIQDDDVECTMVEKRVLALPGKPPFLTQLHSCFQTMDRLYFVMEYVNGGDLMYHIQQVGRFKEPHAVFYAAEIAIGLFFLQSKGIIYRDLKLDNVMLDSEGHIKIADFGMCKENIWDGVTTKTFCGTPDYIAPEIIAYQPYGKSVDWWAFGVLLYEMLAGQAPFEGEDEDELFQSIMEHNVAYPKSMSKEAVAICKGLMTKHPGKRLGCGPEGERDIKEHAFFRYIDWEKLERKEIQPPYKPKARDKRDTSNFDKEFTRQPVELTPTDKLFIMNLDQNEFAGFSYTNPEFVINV
# Sequence of Protein kinase C eta type (P24723 whole entry): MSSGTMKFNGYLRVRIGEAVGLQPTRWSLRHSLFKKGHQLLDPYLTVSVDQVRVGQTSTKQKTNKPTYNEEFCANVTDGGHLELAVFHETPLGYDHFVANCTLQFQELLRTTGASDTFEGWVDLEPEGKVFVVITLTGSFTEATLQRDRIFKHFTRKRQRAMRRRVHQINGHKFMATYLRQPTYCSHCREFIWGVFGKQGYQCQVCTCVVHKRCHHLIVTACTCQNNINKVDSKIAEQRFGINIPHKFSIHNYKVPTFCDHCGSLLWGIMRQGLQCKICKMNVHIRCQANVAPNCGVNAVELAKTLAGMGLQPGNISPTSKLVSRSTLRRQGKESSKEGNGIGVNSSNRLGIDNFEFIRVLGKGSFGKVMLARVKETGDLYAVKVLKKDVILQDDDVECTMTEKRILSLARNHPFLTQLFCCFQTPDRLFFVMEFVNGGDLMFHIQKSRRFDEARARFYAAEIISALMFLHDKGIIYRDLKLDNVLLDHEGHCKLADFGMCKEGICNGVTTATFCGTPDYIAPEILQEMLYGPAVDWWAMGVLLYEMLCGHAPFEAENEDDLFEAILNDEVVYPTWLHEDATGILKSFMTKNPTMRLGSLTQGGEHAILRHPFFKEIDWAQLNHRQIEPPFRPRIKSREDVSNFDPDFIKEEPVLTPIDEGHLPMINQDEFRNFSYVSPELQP
# Sequence of Protein kinase C delta type (Q05655 whole entry): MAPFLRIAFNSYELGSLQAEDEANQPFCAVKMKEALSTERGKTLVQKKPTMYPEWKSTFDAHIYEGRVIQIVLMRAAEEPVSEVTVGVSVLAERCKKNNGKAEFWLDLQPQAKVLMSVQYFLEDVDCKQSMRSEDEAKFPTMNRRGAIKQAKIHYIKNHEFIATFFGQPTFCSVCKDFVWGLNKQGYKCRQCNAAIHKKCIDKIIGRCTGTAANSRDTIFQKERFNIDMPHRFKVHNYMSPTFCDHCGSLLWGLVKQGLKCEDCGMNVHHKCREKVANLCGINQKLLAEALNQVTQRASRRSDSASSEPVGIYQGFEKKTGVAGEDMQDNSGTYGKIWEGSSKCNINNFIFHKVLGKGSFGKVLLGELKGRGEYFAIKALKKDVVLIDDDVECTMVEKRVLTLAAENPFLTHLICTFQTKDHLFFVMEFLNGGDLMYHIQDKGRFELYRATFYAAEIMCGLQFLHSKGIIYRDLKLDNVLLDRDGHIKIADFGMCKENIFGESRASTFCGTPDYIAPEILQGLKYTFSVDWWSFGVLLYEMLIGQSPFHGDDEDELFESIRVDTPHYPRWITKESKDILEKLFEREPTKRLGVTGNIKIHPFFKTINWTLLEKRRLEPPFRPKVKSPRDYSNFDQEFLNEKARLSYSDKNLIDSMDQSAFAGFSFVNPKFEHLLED
# Sequence of 5-hydroxytryptamine receptor 2B (P41595 whole entry): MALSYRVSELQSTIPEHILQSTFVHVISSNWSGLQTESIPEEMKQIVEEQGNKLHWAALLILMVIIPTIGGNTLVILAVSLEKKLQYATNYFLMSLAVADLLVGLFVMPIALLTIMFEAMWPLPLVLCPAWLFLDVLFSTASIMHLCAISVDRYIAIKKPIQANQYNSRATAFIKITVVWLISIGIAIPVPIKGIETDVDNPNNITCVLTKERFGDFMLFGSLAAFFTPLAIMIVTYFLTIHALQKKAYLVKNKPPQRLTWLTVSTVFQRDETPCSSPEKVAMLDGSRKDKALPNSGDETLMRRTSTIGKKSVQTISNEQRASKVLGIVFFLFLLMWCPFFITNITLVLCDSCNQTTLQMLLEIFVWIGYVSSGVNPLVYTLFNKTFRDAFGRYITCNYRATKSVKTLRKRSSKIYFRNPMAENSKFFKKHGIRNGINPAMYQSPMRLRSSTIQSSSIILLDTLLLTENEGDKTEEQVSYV
smiles,measurement,setting,value
CC1(N)CCN(c2cccnc2NC(=O)c2nc(-c3ncccc3C(F)(F)F)cnc2N)CC1 [DAROVASERTIB],IC50,SK-MEL-28,> 10000 nM
same,clearance,[1],5 mL/min/kg
same,AUC(0-inf),[2],2.59 µM·h
same,AUC(0-inf),[3],2.17 µM·h
same,AUC(0-inf),[4],21.4 µM·h
same,Cmax,[5],6120 nM
same,IC50,[6],6.9 nM
same,Activity,[7],Non-Toxic
same,AUC(0-inf),[8],2.39 µM·h
same,Activity,92-1 [9],Dose-Dependent Effect
same,Activity,92-1 [10],Active
same,Tmax,[11],2 h
same,clearance,[12],24 mL/min/kg
same,pKa,[13],9
same,Activity,Mus musculus,Active
same,IC50,[14],109 nM
same,EC50,cells,170 nM
same,bioavailability,[15],55%
same,IC50,[16],13.3 nM
same,bioavailability,[17],17%
same,Activity,92-1 [18],inactive
same,bioavailability,[19],76%
same,IC50,[20],58 nM
same,AUC(0-inf),[21],1.36 µM·h
same,Cmax,[22],509 nM
same,Cmax,[23],667 nM
same,Vd,[24],1.6 L/kg
same,clearance,[25],26 mL/min/kg
same,IC50,[26],2.9 nM
same,half-life,[27],5.7 h
same,EC50,[28],> 30000 nM
same,Tmax,[29],0.5 h
same,Vd,[30],1.4 L/kg
same,AUC(0-inf),[31],1.45 µM·h
same,half-life,[32],4.4 h
same,Vd,[33],3.4 L/kg
same,Activity,[34],Non-Toxic
same,IC50,[35],66 nM
same,half-life,[36],1.1 h
same,Tmax,[37],0.3 h
